Measured values taken from ChEMBL document CHEMBL1201862, “PubChem BioAssay data set” (2004).
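Each compound was tested at five concentrations against cells in 96-well plates for 48 hours. Here, GI50 denotes the concentration required for 50% inhibition of growth.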 Calls of active or inactive are those of the source. No stated cut-off is given here; in the data, active = GI50 up to about 1.1 µM and inactive = higher.

Columns and labels:
Test in all cases: NCI tumour cell line growth inhibition, 48 h
DU-145 = test system: DU-145
NCI-H460 = test system: NCI-H460
HOP-92 = test system: HOP-92
RXF 393 = test system: RXF 393
MOLT-4 = test system: MOLT-4
CCRF-CEM = test system: CCRF-CEM
SR = test system: SR
SF-268 = test system: SF-268
K562 = test system: K562
PC-3 = test system: PC-3
A549 = test system: A549
SK-MEL-28 = test system: SK-MEL-28
MDA-MB-231 = test system: MDA-MB-231
OVCAR-3 = test system: OVCAR-3
CAKI-1 = test system: CAKI-1
M14 = test system: M14
SNB-19 = test system: SNB-19
NCI-H226 = test system: NCI-H226
COLO 205 = test system: COLO 205
IGROV-1 = test system: IGROV-1

Measured: GI50

O=C1CSC(c2cccc(Cl)c2)N1c1c(O)c(Cl)cc(Br)c1Cl (stereo not drawn)
inactive: DU-145 > 100 µM | NCI-H460 > 100 µM | HOP-92 15.1 µM | RXF 393 16.7 µM | MOLT-4 23.6 µM | CCRF-CEM 19.8 µM | SR 24.8 µM | SF-268 57.8 µM | K562 45.2 µM | PC-3 36.1 µM | A549 53.3 µM | SK-MEL-28 > 100 µM | MDA-MB-231 14 µM | OVCAR-3 16.9 µM | CAKI-1 > 100 µM | M14 > 100 µM | SNB-19 > 100 µM | NCI-H226 30.2 µM | COLO 205 23.5 µM

CCON=C1C(C)(C)C(C)(C)C(C)(C)C1(C)C
inactive: DU-145 > 100 µM | NCI-H460 > 100 µM | IGROV-1 > 100 µM | HOP-92 > 100 µM | RXF 393 > 100 µM | MOLT-4 > 100 µM | CCRF-CEM > 100 µM | SR > 100 µM | SF-268 > 100 µM | K562 > 100 µM | PC-3 > 100 µM | A549 > 100 µM | SK-MEL-28 > 100 µM | MDA-MB-231 > 100 µM | OVCAR-3 > 100 µM | CAKI-1 > 100 µM | M14 > 100 µM | SNB-19 > 100 µM | NCI-H226 > 100 µM | COLO 205 > 100 µM

CN(C)Cc1cc(C(F)(F)F)ccc1C(O)(c1ccccc1)c1ccccc1
inactive: DU-145 26.7 µM | NCI-H460 14.6 µM | IGROV-1 15.9 µM | HOP-92 13.6 µM | RXF 393 11.8 µM | MOLT-4 15.7 µM | CCRF-CEM 6.92 µM | SR 12.6 µM | SF-268 15.3 µM | K562 6.9 µM | PC-3 14.1 µM | A549 15 µM | SK-MEL-28 14.9 µM | MDA-MB-231 11.9 µM | OVCAR-3 27.8 µM | CAKI-1 12.8 µM | M14 12.4 µM | SNB-19 16.7 µM | NCI-H226 15.1 µM | COLO 205 8.05 µM

COC(=O)C(CCCCN)NC(=O)C(CCCCN)NC(=O)C(CCCCN)NC(C)=O.Cc1ccc(C(=O)Nc2ccc(S(=O)(=O)O)c3cc(S(=O)(=O)O)cc(S(=O)(=O)O)c23)cc1NC(=O)c1cccc(NC(=O)Nc2cccc(C(=O)Nc3cc(C(=O)Nc4ccc(S(=O)(=O)O)c5cc(S(=O)(=O)O)cc(S(=O)(=O)O)c45)ccc3C)c2)c1
inactive: DU-145 > 50 µM | NCI-H460 48.9 µM | HOP-92 > 50 µM | RXF 393 > 50 µM | MOLT-4 > 50 µM | CCRF-CEM > 50 µM | SR > 50 µM | SF-268 43 µM | K562 > 50 µM | PC-3 > 50 µM | A549 > 50 µM | SK-MEL-28 > 50 µM | MDA-MB-231 > 50 µM | OVCAR-3 > 50 µM | CAKI-1 > 50 µM | M14 > 50 µM | SNB-19 > 50 µM | NCI-H226 17.7 µM | COLO 205 > 50 µM
